Reference: publication PMC7939570, “Discovery of potent histone deacetylase inhibitors with modified phenanthridine caps” (Journal of Enzyme Inhibition and Medicinal Chemistry, 2021)

Assays:
MCF-7 cells [1] = experiment: Cell cycle assay (PI, flow cytometry); conditions: 24 h
Experimental: After staining, the cell cycle distribution was determined by flow cytometry within 24 h.

MCF-7 cells [2] = experiment: Cell apoptosis assay (Annexin V-FITC/PI, flow cytometry); conditions: 24 h, control 9.16%
Experimental: After incubating for 15 min, add 10 µL of PI to each sample and mix gently, and incubate for 5 min at 2–8 °C under dark conditions, and detect with a flow cytometer.

U266 cells = experiment: MTT antiproliferative assay, U266 cells; conditions: Homo sapiens, U-266, 48 h, read-out: U266 antiproliferative IC50
K562 cells = experiment: MTT antiproliferative assay, K562 cells; conditions: Homo sapiens, K562, 48 h, read-out: K562 antiproliferative IC50
[3] = test system: Hela nucleus extract containing a mixture of HDAC isoforms; experiment: HDAC enzyme inhibitory assay with Hela nucleus extract; assay type: biochemical; conditions: 1 µM, mean of three experiments
Experimental: The HDAC enzyme inhibitory activities of synthesised compounds were investigated by utilising Hela nucleus extract containing a mixture of HDAC isoforms. Percentage inhibitory rate was used to determine the activity of tested compounds (Tables 1 and 2). The Fa series compounds were firstly synthesised for the activity screening. […] To investigate whether aromatic linker could improve the inhibitory activities, structural modifications were performed on current molecules.

U937 cells = experiment: MTT antiproliferative assay, U937 cells; conditions: Homo sapiens; for IC50: U-937, 48 h, read-out: U937 antiproliferative IC50; for inhibition at 1 µM: U-937, read-out: U937 percentage inhibitory rate, 1 µM, U937 cells, MTT, mean of three experiments
HEPG2 cells = experiment: MTT antiproliferative assay, HEPG2 cells; conditions: Homo sapiens, HepG2, 48 h, read-out: HEPG2 antiproliferative IC50
MCF-7 cells [4] = experiment: MTT antiproliferative assay, MCF-7 cells; conditions: Homo sapiens, MCF7, 48 h, read-out: MCF-7 antiproliferative IC50
HDAC6 = target: T1, HDAC6 (Homo sapiens, UniProt Q9UBN7); experiment: HDAC isoform inhibitory assay, HDAC6
T1 sequence (Q9UBN7 1-1215): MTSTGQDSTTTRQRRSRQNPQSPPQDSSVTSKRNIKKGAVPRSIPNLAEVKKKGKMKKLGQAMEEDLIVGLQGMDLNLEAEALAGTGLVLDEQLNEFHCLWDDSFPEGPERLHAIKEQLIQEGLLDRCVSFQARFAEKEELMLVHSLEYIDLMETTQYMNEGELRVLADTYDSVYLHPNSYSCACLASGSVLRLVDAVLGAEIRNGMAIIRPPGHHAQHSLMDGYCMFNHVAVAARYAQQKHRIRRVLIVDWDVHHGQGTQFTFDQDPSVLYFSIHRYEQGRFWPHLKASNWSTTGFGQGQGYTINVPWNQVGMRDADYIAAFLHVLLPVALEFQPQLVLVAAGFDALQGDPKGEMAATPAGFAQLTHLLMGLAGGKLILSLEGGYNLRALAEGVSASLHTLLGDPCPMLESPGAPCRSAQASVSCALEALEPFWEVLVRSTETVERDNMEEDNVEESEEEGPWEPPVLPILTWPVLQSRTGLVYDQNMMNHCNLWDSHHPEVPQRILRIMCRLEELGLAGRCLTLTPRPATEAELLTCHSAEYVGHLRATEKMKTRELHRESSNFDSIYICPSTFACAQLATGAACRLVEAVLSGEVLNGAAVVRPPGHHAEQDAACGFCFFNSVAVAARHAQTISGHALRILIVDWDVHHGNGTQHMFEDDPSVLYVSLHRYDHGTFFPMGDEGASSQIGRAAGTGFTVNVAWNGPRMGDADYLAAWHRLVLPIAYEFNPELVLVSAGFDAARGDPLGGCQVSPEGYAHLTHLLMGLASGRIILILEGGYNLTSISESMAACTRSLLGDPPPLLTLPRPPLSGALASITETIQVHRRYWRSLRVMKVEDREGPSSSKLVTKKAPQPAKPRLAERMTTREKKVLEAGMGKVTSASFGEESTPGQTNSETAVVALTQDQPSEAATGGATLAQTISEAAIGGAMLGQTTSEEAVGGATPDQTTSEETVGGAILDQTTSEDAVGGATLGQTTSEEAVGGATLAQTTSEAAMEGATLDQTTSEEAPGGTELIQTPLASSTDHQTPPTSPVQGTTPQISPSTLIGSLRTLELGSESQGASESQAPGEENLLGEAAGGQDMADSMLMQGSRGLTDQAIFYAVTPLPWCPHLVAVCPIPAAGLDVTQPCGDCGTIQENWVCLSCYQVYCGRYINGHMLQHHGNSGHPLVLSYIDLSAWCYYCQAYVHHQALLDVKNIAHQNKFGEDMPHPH
Experimental: (§1) All HDAC enzymes were purchased from BPS Bioscience. In short, 60 μL of recombinant HDAC enzyme solution was mixed with various concentrations of test compound (40 μL), and then incubated at 37 °C for 30 min. The reaction was terminated by adding 100 μL of imaging agent containing trypsin and trichostatin A (TSA). After standing for 20 min, the fluorescence intensity was measured at the excitation and emission wavelengths of 360 and 460 nm with a microplate reader. The inhibition rate was calculated from the fluorescence intensity readings of the test wells relative to the control wells, and the IC50 curve and value were determined by GraphPad Prism 6.0 software.

HDAC8 = target: T2, HDAC8 (Homo sapiens, UniProt Q9BY41); experiment: HDAC isoform inhibitory assay, HDAC8
T2 sequence (Q9BY41 1-377): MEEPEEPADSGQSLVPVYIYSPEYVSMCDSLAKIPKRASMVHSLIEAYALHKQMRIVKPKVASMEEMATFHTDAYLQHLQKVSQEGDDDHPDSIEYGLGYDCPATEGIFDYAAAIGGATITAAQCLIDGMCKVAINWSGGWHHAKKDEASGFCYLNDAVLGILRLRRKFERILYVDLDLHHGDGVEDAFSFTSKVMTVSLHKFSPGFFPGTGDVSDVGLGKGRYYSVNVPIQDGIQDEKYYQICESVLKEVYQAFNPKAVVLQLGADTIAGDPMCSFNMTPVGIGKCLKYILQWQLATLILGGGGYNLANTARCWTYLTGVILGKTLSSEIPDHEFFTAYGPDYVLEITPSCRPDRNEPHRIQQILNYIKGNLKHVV
Experimental: as §1

HDAC1 = HDAC1 (Homo sapiens, UniProt Q13547); experiment: HDAC isoform inhibitory assay, HDAC1
Experimental: as §1

HDAC2 = HDAC2 (Homo sapiens, UniProt Q92769); experiment: HDAC isoform inhibitory assay, HDAC2
Experimental: as §1

HDAC3 = HDAC3 (Homo sapiens, UniProt O15379); experiment: HDAC isoform inhibitory assay, HDAC3
Experimental: as §1

[5] = test system: xenograft nude mice model; set-up: method as in PMID 31058081; conditions: in vivo; cited from earlier work

Chain of HDAC2 (Q92769 whole entry, canonical isoform): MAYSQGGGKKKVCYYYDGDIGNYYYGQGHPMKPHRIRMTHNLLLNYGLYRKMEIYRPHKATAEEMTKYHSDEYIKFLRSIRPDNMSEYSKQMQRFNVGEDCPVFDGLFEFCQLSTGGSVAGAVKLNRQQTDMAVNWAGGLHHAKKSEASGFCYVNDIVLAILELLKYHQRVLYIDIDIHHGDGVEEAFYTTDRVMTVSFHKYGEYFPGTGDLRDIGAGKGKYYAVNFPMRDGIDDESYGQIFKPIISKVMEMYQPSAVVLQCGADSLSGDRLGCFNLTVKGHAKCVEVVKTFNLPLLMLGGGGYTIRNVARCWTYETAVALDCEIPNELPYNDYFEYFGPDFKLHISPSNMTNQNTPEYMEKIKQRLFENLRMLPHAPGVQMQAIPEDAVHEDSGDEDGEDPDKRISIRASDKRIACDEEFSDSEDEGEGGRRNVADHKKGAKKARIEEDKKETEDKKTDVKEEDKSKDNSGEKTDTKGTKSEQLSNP
Chain of HDAC3 (O15379 whole entry, canonical isoform): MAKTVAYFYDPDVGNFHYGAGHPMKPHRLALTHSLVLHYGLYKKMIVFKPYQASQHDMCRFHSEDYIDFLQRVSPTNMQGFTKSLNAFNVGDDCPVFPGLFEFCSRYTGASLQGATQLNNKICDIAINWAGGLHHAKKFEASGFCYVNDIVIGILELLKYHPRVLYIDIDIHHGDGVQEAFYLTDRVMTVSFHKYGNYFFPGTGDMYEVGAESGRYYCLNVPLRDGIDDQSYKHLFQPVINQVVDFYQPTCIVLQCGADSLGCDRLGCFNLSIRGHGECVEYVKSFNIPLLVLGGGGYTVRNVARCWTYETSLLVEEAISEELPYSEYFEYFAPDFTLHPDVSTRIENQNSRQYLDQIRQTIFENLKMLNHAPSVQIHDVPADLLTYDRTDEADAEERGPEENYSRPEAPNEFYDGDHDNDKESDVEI
Chain of HDAC3 (Q9Y618 395-489 partner limits assumed): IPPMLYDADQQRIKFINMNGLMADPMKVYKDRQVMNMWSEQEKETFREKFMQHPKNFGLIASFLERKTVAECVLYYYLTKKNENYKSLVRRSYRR
Chain of HDAC1 (Q13547 whole entry, canonical isoform): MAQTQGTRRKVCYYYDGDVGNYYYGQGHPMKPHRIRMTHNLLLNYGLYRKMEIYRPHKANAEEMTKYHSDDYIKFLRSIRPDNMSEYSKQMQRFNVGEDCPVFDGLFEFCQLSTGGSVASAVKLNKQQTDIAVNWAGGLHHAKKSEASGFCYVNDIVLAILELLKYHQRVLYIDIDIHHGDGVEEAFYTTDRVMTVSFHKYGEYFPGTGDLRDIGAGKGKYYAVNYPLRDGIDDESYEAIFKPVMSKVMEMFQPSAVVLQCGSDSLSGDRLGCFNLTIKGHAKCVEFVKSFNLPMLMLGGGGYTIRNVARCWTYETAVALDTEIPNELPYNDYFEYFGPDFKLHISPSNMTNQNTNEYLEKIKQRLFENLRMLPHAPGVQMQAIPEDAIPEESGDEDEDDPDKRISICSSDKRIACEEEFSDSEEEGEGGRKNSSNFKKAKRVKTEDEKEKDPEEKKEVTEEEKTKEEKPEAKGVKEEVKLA

IC50 (U266 cells) [nM] | IC50 (K562 cells) [nM] | HDACs percentage inhibitory rate [3] [%] | IC50 (U937 cells) [nM] | IC50 (HEPG2 cells) [nM] | IC50 (MCF-7 cells [4]) [nM] | Structure (SMILES) | inhibition at 1 µM (U937 cells) [%] | further results
140 ± 60 |  |  |  |  |  | O=C(CCCCCCC(=O)Nc1ccccc1)NO [SAHA, Vorinostat, reference compound] |  | cell percentage at G2/M phase (MCF-7 cells [1]; 1 µM): 15.39%; cell percentage at G2/M phase (MCF-7 cells [1]; 3 µM): 20.75%; cell percentage at G2/M phase (MCF-7 cells [1]; 9 µM): 38.48%; percentage of apoptotic cells (MCF-7 cells [2]; 1 µM): 11.38%; percentage of apoptotic cells (MCF-7 cells [2]; 3 µM): 12.30%; percentage of apoptotic cells (MCF-7 cells [2]; 9 µM): 19.51%
90 ± 10 | 1190 ± 60 | 52.30 ± 2.26 | 920 ± 90 | 17900 ± 1040 | 940 ± 20 | COc1ccc(C(=O)Nc2cc3c(cc2-c2ccc(C(=O)NCc4ccc(C(=O)NO)cc4)cc2)OCO3)cc1 [Fb-2, 4-({4-[6–(4-Methoxy-benzoylamino)-benzo[1,3]dioxol-5-yl]-benzoylamino}-methyl)-N-Hydroxy-benzamide] | 94.46 ± 0.41 | 
100 ± 20 | 470 ± 30 | 53.90 ± 1.82 | 630 ± 20 | 14900 ± 780 | 530 ± 90 | CCc1ccc(C(=O)Nc2cc3c(cc2-c2ccc(C(=O)NCc4ccc(C(=O)NO)cc4)cc2)OCO3)cc1 [Fb-3, 4-({4-[6–(4-Ethyl-benzoylamino)-benzo[1,3]dioxol-5-yl]-benzoylamino}-methyl)-N-Hydroxy-benzamide] | 96.05 ± 0.01 | 
90 ± 10 | 870 ± 10 | 66.54 ± 1.47 | 340 ± 60 | 17400 ± 630 | 320 ± 40 | O=C(NO)c1ccc(CNC(=O)c2ccc(-c3cc4c(cc3NC(=O)c3ccccc3F)OCO4)cc2)cc1 [Fb-4, 4-({4-[6–(2-Fluoro-benzoylamino)-benzo[1,3]dioxol-5-yl]-benzoylamino}-methyl)-N-Hydroxy-benzamide] | 95.9 ± 1.09 | IC50 (HDAC6): 8.6 ± 1.3 nM; IC50 (HDAC8): 304 ± 32.6 nM; cell percentage at G2/M phase (MCF-7 cells [1]; 1 µM): 17.46%; cell percentage at G2/M phase (MCF-7 cells [1]; 3 µM): 24.81%; cell percentage at G2/M phase (MCF-7 cells [1]; 9 µM): 41.71%; percentage of apoptotic cells (MCF-7 cells [2]; 1 µM): 16.99%; percentage of apoptotic cells (MCF-7 cells [2]; 3 µM): 20.07%; percentage of apoptotic cells (MCF-7 cells [2]; 9 µM): 21.19%; IC50 (HDAC1): 12.1 ± 2.5 nM; IC50 (HDAC2): 21.5 ± 4.5 nM; IC50 (HDAC3): 11 ± 2.8 nM
 |  | 49.47 ± 9.25 |  |  |  | O=C(NO)c1ccc(CNC(=O)c2ccc(-c3cc4c(cc3NC(=O)c3cccc(Br)c3)OCO4)cc2)cc1 [Fb-10, 4-({4-[6–(3-Bromo-benzoylamino)-benzo[1,3]dioxol-5-yl]-benzoylamino}-methyl)-N-Hydroxy-benzamide] | 86.2 ± 4.18 | 
 |  |  |  |  |  | ClC(Cl)(Cl)c1nc2cc3c(cc2c2cc4c(cc12)OCO4)OCO3 [Compound 8a] |  | hepatotoxicity [5]: obvious hepatotoxicity
 |  | 15.58 ± 3.25 |  |  |  | O=C(CCCNC(=O)c1ccc(-c2cc3c(cc2NC(=O)c2c(F)cccc2Cl)OCO3)cc1)NO [Fa-21, 4-{4-[6–(2-Chloro-6-fluoro-benzoylamino)-benzo[1,3]dioxol-5-yl]-benzoylamino}-N-Hydroxy-butyramide] | 11.2 ± 1.01 | 
 |  | 31.47 ± 3.47 |  |  |  | O=C(CCCNC(=O)c1ccc(-c2cc3c(cc2NC(=O)c2ccc(F)cc2C(F)(F)F)OCO3)cc1)NO [Fa-18, 4-{4-[6–(4-Fluoro-2-trifluoromethyl-benzoylamino)-benzo[1,3]dioxol-5-yl]-benzoylamino}-N-Hydroxy-butyramide] | 10.3 ± 1.31 | 
